How the values were obtained:
[1] = tested on: Haemonchus contortus L1 larvae; test: Haemonchus contortus larval development L1 to L3, 4 days, dose response; details: 96 h, read-out: EC50, development of H. contortus larvae from L1 to L3
Excerpt: Biological Example 2: Screening Method to Test Activity of Compounds Against Haemonchus contortus

[2] = tested on: L4 stage larvae of Dirofilaria immitis; test: Motility of L4 stage Dirofilaria immitis larvae, 3 days, dose response; type: cell-based; details: 72 h, read-out: EC50, motility of L4 stage D. immitis, three days at 37° C., 5% CO2, vs DMSO control
[3] = tested on: Microfilaria of Dirofilaria immitis; test: Motility of Dirofilaria immitis microfilariae in microtiter plate, 3 days, dose response; type: cell-based; details: 72 h, read-out: EC50, motility of D. immitis microfilaria, three days at 37° C., 5% CO2, vs DMSO control

Structure (SMILES) | EC50 [1] | EC50 [2] | EC50 [3]
CC(C)c1c(C(=O)NN2CCOc3ccccc32)cnn2c(-c3cc(F)cc(Cl)c3Cl)c(Cl)cc12 [Compound A496] | 0.01 to 0.1 µM | 0.01 to 0.1 µM | < 0.01 µM
O=C(N[C@H]1CCOc2ccccc21)c1cnn2c(-c3cc(Cl)cc(Cl)c3Cl)c(Cl)cc2c1N1CC(F)(F)C1 [Compound A506] | 0.01 to 0.1 µM | < 0.01 µM | < 0.01 µM
CC(C)(C)c1c(C(=O)N[C@H]2CCOc3ccccc32)cnn2c(-c3cc(Cl)cc(Cl)c3Cl)c(Cl)cc12 [Compound A522] | < 0.01 µM | < 0.01 µM | < 0.01 µM
CC(C)(C)c1c(C(=O)NN2CCOc3ccccc32)cnn2c(-c3cc(F)cc(Cl)c3Cl)c(Cl)cc12 [Compound A494] | 0.01 to 0.1 µM | < 0.01 µM | 0.01 to 0.1 µM
O=C(N[C@H]1CCOc2ccccc21)c1cnn2c(-c3cc(F)cc(Cl)c3Cl)c(Cl)cc2c1N1CC(F)(F)C1 [Compound A507] | < 0.01 µM | < 0.01 µM | < 0.01 µM
Cc1cc2c(C(C)(C)C)c(C(=O)N[C@H]3CCOc4ccccc43)cnn2c1-c1c(F)cc(F)cc1F [Compound A476] | 0.01 to 0.1 µM | < 0.01 µM | 0.01 to 0.1 µM
Cc1cc2c(C(C)(C)C)c(C(=O)NN3CCOc4ccccc43)cnn2c1-c1cc(F)cc(Cl)c1Cl [Compound A495] | < 0.01 µM | < 0.01 µM | < 0.01 µM
Cc1cc2c(C(C)(C)C)c(C(=O)N[C@H]3CCc4scnc43)cnn2c1-c1cc(F)cc(Cl)c1Cl [Compound A540] | 0.01 to 0.1 µM | 0.01 to 0.1 µM | < 0.01 µM
Cc1cc2c(C(C)(C)C)c(C(=O)N[C@H]3CCOc4scnc43)cnn2c1-c1cc(F)cc(Cl)c1Cl [Compound A550] | 0.01 to 0.1 µM | 0.01 to 0.1 µM | 0.01 to 0.1 µM
CN(C)c1c(C(=O)N[C@H]2CCOc3ccccc32)cnn2c(-c3cc(F)cc(Cl)c3Cl)c(Cl)cc12 [Compound A478] | 0.01 to 0.1 µM | 0.1 to 1 µM | 0.01 to 0.1 µM
Cc1cc2c(C(C)C)c(NC(=O)[C@H]3CCOc4ccccc43)cnn2c1-c1cc(Cl)cc(Cl)c1 [Compound A462] | 0.1 to 1 µM | 0.01 to 0.1 µM | 0.01 to 0.1 µM
Cc1cc2c(C(C)(C)C)c(C(=O)N[C@H]3CCOc4ccccc43)cnn2c1-c1cc(F)cc(Cl)c1Cl [Compound A481, 4-tert-butyl-7-(2,3-dichloro-5-fluorophenyl)-N-[(4S)-3,4-dihydro-2H-1-benzopyran-4-yl]-6-methylpyrrolo[1,2-b]pyridazine-3-carboxamide] | 0.01 to 0.1 µM | < 0.01 µM | 0.01 to 0.1 µM
Cc1cc2c(C(C)(C)C)c(C(=O)N[C@H]3CCOc4ccccc43)cnn2c1N1CCCCC1 [Compound A524, 4-tert-butyl-N-[(4S)-3,4-dihydro-2H-1-benzopyran-4-yl]-6-methyl-7-(piperidin-1-yl)pyrrolo[1,2-b]pyridazine-3-carboxamide] | 0.1 to 1 µM | 0.1 to 1 µM | 0.1 to 1 µM
Cc1cc2c(N3CC(F)(F)C3)c(C(=O)N[C@H]3CCOc4ccccc43)cnn2c1-c1cc(F)cc(Cl)c1Cl [Compound A504] | 0.01 to 0.1 µM | < 0.01 µM | < 0.01 µM
CC(C)c1c(C(=O)N[C@H]2CCOc3ccccc32)cnn2c(-c3cc(Cl)cc(Cl)c3)c(Cl)cc12 [Compound A463] | 0.01 to 0.1 µM | 0.01 to 0.1 µM | < 0.01 µM
Cc1cc2c(C(C)(C)C)c(C(=O)N[C@H]3CCc4ccccc43)cnn2c1-c1cc(F)cc(Cl)c1Cl [Compound A558] | < 0.01 µM | < 0.01 µM | < 0.01 µM
CC(C)(C)c1c(C(=O)N[C@H]2CCOc3ccccc32)cnn2c(-c3cc(F)cc(Cl)c3Cl)c(Cl)cc12 [Compound A502, 4-tert-butyl-6-chloro-7-(2,3-dichloro-5-fluorophenyl)-N-[(4S)-3,4-dihydro-2H-1-benzopyran-4-yl]pyrrolo[1,2-b]pyridazine-3-carboxamide] | < 0.01 µM | < 0.01 µM | < 0.01 µM

— patent US11999742B2, “Substituted pyrrolo[1,2-b]pyridazines as anthelmintics” (BOEHRINGER INGELHEIM VETMEDICA GMBH, priority 2021, dated 2024)
